The values below come from patent publication US9815796B2 (Merck Sharp & Dohme Corp., priority 2013, dated 2017).

SMILES strings stand for the structures. Like-named read-outs stand apart in the source and are kept apart here.

One test has as its target human PDE2A1 (Homo sapiens (Human), UniProt O00408). Nature of the test: IMAP FP PDE selectivity panel, human PDE2A1. The class given is biochemical. The method in brief: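 GST-tagged human PDE2A1 expressed in insect cells, run at room temperature for 60 min with 50 nM FAM-cAMP containing 1000 nM cGMP, pH 7.2 Tris/MgCl2 buffer. IMAP fluorescence polarization read after binding step.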

For a further test, the target named is Rhesus PDE2A3 (Macaca mulatta, UniProt B3VTJ2). Nature of the test: PDE2 fluorescence polarization (IMAP FP) inhibition assay, rhesus enzyme. The test is classed as biochemical, rhesus macaque. The method in brief: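 Rhesus PDE2A3 came from lysate of transiently transfected AD293 cells, diluted to give 20% substrate conversion. Substrate was 50 nM FAM-cAMP with 1 uM cGMP activator in Tris pH 7.2/MgCl2 buffer, run 60 min at room temperature over 10-point 3-fold dilutions in 1% DMSO. Read-out was IMAP fluorescence polarization (mP) after ≥1 h binding.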
Chain of Rhesus PDE2A3 (B3VTJ2 1-941): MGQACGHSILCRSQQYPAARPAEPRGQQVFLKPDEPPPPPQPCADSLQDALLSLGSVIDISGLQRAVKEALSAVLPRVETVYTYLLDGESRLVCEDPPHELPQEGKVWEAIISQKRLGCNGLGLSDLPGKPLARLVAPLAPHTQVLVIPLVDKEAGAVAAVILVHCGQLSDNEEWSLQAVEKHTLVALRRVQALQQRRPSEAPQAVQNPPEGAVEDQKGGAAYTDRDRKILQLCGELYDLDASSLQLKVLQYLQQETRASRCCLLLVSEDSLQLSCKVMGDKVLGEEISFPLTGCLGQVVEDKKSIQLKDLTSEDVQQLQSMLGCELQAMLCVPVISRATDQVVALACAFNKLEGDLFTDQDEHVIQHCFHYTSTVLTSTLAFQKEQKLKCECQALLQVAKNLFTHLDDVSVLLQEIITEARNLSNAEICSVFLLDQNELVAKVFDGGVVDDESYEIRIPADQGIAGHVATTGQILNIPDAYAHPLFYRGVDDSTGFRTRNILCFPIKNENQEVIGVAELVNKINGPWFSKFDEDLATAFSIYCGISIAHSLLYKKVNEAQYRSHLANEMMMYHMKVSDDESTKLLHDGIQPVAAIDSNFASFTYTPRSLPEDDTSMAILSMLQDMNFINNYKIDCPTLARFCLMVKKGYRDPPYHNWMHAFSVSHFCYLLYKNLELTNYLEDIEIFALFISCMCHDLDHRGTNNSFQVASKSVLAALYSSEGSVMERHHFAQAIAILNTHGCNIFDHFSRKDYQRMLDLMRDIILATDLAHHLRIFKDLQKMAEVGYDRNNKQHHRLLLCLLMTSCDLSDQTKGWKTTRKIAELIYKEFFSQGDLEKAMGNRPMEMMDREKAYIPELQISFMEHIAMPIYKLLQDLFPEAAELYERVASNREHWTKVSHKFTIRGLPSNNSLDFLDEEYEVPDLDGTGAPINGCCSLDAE
For orientation: Polarisation of emitted light reports the rotation of a fluorescent probe.

Where [1] appears, read: Human PDE2, Lab B, read-out: Human PDE2 Ki (nM) - Lab B.
Setting [2] is: Rhesus PDE2, Lab B, read-out: Rhesus PDE2 Ki (nM) - Lab B.
The mark [3] stands for this setting: Human PDE2, Lab A, read-out: Human PDE2 Ki (nM) - Lab A.
Setting [4] is: Rhesus PDE2, Lab A, read-out: Rhesus PDE2 Ki (nM) - Lab A.

Chain of human PDE2A1 (O00408 other isoform, or with tags, fused parts or gaps): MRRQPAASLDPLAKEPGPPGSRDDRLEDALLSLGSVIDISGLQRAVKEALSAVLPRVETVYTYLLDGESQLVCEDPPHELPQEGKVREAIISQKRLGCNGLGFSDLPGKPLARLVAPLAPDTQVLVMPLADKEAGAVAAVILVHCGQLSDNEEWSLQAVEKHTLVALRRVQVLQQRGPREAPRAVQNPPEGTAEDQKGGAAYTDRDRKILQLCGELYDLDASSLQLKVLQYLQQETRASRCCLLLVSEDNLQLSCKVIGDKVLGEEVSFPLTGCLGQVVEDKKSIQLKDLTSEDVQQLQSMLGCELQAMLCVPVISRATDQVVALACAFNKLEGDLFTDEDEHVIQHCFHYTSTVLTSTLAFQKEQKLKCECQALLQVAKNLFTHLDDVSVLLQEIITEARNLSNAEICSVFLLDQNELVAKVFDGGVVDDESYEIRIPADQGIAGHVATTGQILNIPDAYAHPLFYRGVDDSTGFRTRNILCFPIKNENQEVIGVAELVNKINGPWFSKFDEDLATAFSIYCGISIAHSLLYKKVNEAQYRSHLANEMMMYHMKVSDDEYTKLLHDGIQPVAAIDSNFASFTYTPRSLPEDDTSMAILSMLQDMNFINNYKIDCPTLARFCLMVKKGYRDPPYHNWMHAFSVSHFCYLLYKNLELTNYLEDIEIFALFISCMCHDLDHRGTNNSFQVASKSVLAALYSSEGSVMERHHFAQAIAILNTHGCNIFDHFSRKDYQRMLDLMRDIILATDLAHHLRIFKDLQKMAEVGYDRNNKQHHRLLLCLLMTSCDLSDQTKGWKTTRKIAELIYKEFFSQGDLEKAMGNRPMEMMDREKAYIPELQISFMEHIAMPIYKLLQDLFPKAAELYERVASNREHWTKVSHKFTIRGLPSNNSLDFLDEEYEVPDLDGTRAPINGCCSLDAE

As usually defined, the Ki is the equilibrium dissociation constant of an inhibitor or competing ligand from its target. On to `Cc1nc(C(=O)N[C@@H](c2ccc(S(F)(F)(F)(F)F)cc2)C2(C)CC2)cc(=O)[nH]1` [Example 424, 2-methyl-N-{(R)-(1-methylcyclopropyl)[4-(pentafluoro-λ^6-sulfanyl)phenyl]methyl}-6-oxo-1,6-dihydropyrimidine-4-carboxamide], for which the figures for the Ki at human PDE2A1 (setting [1]) and on Rhesus PDE2A3 (setting [2]) were 9.2 nM and 7.2 nM, respectively.
Consider `Cc1nc(C(=O)N[C@@H](c2ccc(CC(F)(F)F)cc2)C(C)(C)C)cc(=O)[nH]1` [Example 61, (R)-N-(2,2-dimethyl-1-(4-(2,2,2-trifluoroethyl)phenyl)propyl)-2-methyl-6-oxo-1,6-dihydropyrimidine-4-carboxamide], for which the figures for the Ki at human PDE2A1 (setting [1]) and on Rhesus PDE2A3 (setting [2]) were 8.2 nM and 10 nM, respectively.
As to `C[C@@H](NC(=O)c1cc(=O)[nH]c(-c2ccccc2)n1)c1cc(F)c(C(F)(F)F)c(F)c1` [Example 184, N-{(1R)-1-[3,5-difluoro-4-(trifluoromethyl)phenyl]ethyl}-6-oxo-2-phenyl-1,6-dihydropyrimidine-4-carboxamide], the Ki at human PDE2A1 (setting [3]) and at Rhesus PDE2A3 (setting [4]) was 20 nM in each case.
`CC(C)[C@@H](NC(=O)c1cc(=O)[nH]c(-c2ncccn2)n1)c1ccc(C(F)(F)F)cc1` [Example 73, N-{(1R)-2-methyl-1-[4-(trifluoromethyl)phenyl]propyl}-6-oxo-1,6-dihydro-2,2′-bipyrimidine-4-carboxamide]: the figures for the Ki on human PDE2A1 (setting [1]), on Rhesus PDE2A3 (setting [4]) and on Rhesus PDE2A3 (setting [2]) were 5.3 nM, 4.1 nM and 4.9 nM, respectively.
Turning to `Cc1nc(C(=O)N[C@H](C)c2ccc(-c3cccc(F)c3)cc2)cc(=O)[nH]1` [Example 323, N-[(1R)-1-(3′-fluorobiphenyl-4-yl)ethyl]-2-methyl-6-oxo-1,6-dihydropyrimidine-4-carboxamide], the Ki was 50 nM at human PDE2A1 (setting [3]) and 66 nM at Rhesus PDE2A3 (setting [4]).
Regarding `Cc1nc(C(=O)N[C@@H](c2ccc(C(F)(F)F)cc2F)C(C)(C)C)cc(=O)[nH]1` [Example 617], the Ki came to 4 nM at human PDE2A1 (setting [1]) and 4.2 nM on Rhesus PDE2A3 (setting [2]).
The like results for `CC[C@@H](NC(=O)c1cc(=O)[nH]c(Cc2ccc(OC)c(F)c2)n1)c1ccc(C(F)(F)F)c(F)c1` [Example 527, 2-(3-fluoro-4-methoxybenzyl)-N-{(1R)-1-[3-fluoro-4-(trifluoromethyl)phenyl]propyl}-6-oxo-1,6-dihydropyrimidine-4-carboxamide] were, in that order, 3 nM and 3.1 nM.
Consider `O=C(N[C@@H](c1ccc(C(F)(F)F)c(F)c1)C1CC1)c1cc(=O)[nH]c(-c2ccccc2)n1` [Example 174, N-{(R)-cyclopropyl[3-fluoro-4-(trifluoromethyl)phenyl]methyl}-6-oxo-2-phenyl-1,6-dihydropyrimidine-4-carboxamide], for which the Ki at human PDE2A1 (setting [3]) is 4.5 nM; on Rhesus PDE2A3 (setting [4]) it was 5.7 nM.
For the compound `COc1ccc(C(C)(C)c2nc(C(=O)N[C@@H](c3ccc(OC(F)(F)F)c(F)c3)C3CC3)cc(=O)[nH]2)cc1` [Example 498, N-{(R)-cyclopropyl[3-fluoro-4-(trifluoromethoxy)phenyl]methyl}-2-[1-(4-methoxyphenyl)-1-methylethyl]-6-oxo-1,6-dihydropyrimidine-4-carboxamide], the Ki on human PDE2A1 (setting [1]) came to 49 nM; on Rhesus PDE2A3 (setting [2]), 65 nM.
Turning to `N#CC(NC(=O)c1cc(=O)[nH]c(-c2ccccc2)n1)c1ccc(C(F)(F)F)cc1` (stereo not shown) [Example 413, N-{cyano[4-(trifluoromethyl)phenyl]methyl}-6-oxo-2-phenyl-1,6-dihydropyrimidine-4-carboxamide], the figures for the Ki on human PDE2A1 (setting [1]) and at Rhesus PDE2A3 (setting [2]) were 126 nM and 105 nM, respectively.
Consider `Cc1nc(C(=O)N[C@H](C)c2ccc(-c3ccc(F)cc3)cc2)cc(=O)[nH]1` [Example 322, N-[(1R)-1-(4′-fluorobiphenyl-4-yl)ethyl]-2-methyl-6-oxo-1,6-dihydropyrimidine-4-carboxamide], for which the Ki on human PDE2A1 (setting [3]) was found to be 171 nM; at Rhesus PDE2A3 (setting [4]), 205 nM.
For `CC[C@@H](NC(=O)c1cc(=O)[nH]c(C(C)(C)c2ccc(OC)cc2)n1)c1ccc(OC(F)(F)F)c(F)c1` [Example 504, N-{(1R)-1-[3-fluoro-4-(trifluoromethoxy)phenyl]propyl}-2-[1-(4-methoxyphenyl)-1-methylethyl]-6-oxo-1,6-dihydropyrimidine-4-carboxamide], the Ki was 30 nM at human PDE2A1 (setting [1]) and 42 nM at Rhesus PDE2A3 (setting [2]).
As for `Cc1nc(C(=O)NC(C)(c2ccc(S(F)(F)(F)(F)F)cc2)C(C)C)cc(=O)[nH]1` (racemic) [Example 619, N-{1,2-dimethyl-1-[4-(pentafluoro-λ^6-sulfanyl)phenyl]propyl}-2-methyl-6-oxo-1,6-dihydropyrimidine-4-carboxamide], the figures for the Ki on human PDE2A1 (setting [1]) and on Rhesus PDE2A3 (setting [2]) were 67 nM and 62 nM, respectively.
Regarding `COc1ccc2cc(C(C)NC(=O)c3cc(=O)[nH]c(C4CC4)n3)ccc2c1` (stereo not shown) [Example 192, 2-cyclopropyl-N-[1-(6-methoxynaphthalen-2-yl)ethyl]-6-oxo-1,6-dihydropyrimidine-4-carboxamide], the Ki at human PDE2A1 (setting [3]) came out at 81 nM; at Rhesus PDE2A3 (setting [4]), 151 nM.
For the compound `Cc1nc(C(=O)NC(C(=O)O)c2ccc(C(F)(F)F)cc2)cc(=O)[nH]1` (single isomer, unassigned) [Example 327], the Ki at human PDE2A1 (setting [3]) stood at 8100 nM; at Rhesus PDE2A3 (setting [4]), 4550 nM.
With `Cc1nc(C(=O)NC(c2ccc(C3(C)CC3)c(F)c2)C(C)(C)C)cc(=O)[nH]1` (single isomer, unassigned) [Example 711, (R)- or (S)-N-(1-(3-fluoro-4-(1-methylcyclopropyl)phenyl)-2,2-dimethylpropyl)-2-methyl-6-oxo-1,6-dihydropyrimidine-4-carboxamide], the figures for the Ki on human PDE2A1 (setting [1]) and at Rhesus PDE2A3 (setting [2]) were 3.7 nM and 5.1 nM, respectively.
The like results for `CC1(c2ccc(C(NC(=O)c3cc(=O)[nH]c(-c4ncccn4)n3)C(C)(C)C)cc2F)CC1` (single isomer, unassigned) [Example 717, (R)- or (S)-N-(1-(3-fluoro-4-(1-methylcyclopropyl)phenyl)-2,2-dimethylpropyl)-6-oxo-1,6-dihydro-[2,2′-bipyrimidine]-4-carboxamide] were, in that order, 14 nM and 17 nM.
As to `COc1ccc(C(C)(C)c2nc(C(=O)N[C@@H](c3ccc(OC(F)(F)F)cc3)C3CC3)cc(=O)[nH]2)cc1` [Example 501, N-{(R)-cyclopropyl[4-(trifluoromethoxy)phenyl]methyl}-2-[1-(4-methoxyphenyl)-1-methylethyl]-6-oxo-1,6-dihydropyrimidine-4-carboxamide], the Ki at human PDE2A1 (setting [1]) was found to be 64 nM; on Rhesus PDE2A3 (setting [2]) it was 77 nM.
As to `C[C@@H](NC(=O)c1cc(=O)[nH]c(-c2ccccc2)n1)c1ccc(C(F)(F)F)cc1` [Example 274, 6-oxo-2-phenyl-N-{(1R)-1-[4-(trifluoromethyl)phenyl]ethyl}-1,6-dihydropyrimidine-4-carboxamide], the Ki at human PDE2A1 (setting [3]) and at Rhesus PDE2A3 (setting [4]) was 6.7 nM in each case.
With `Cc1nc(C(=O)N[C@@H](c2ccc(C(F)(F)F)c(F)c2)C(C)(C)C)cc(=O)[nH]1` [Example 59], the Ki on human PDE2A1 (setting [1]) worked out at 4.5 nM; at Rhesus PDE2A3 (setting [2]), 6.4 nM.
Regarding `O=C(NC1(c2ccc(C(F)(F)F)cc2F)CC1)c1cc(=O)[nH]c(-c2ncccn2)n1` [Example 579, N-{1-[2-fluoro-4-(trifluoromethyl)phenyl]cyclopropyl}-6-oxo-1,6-dihydro-2,2′-bipyrimidine-4-carboxamide], on human PDE2A1 (setting [1]), the Ki came out at 37 nM.
Turning to `Cc1nc(C(=O)N[C@@H](c2ccc(C(F)F)c(F)c2)C2(C)CC2)cc(=O)[nH]1` [Example 647, N-[(R)-[4-(difluoromethyl)-3-fluorophenyl](1-methylcyclopropyl)methyl]-2-methyl-6-oxo-1,6-dihydropyrimidine-4-carboxamide], the Ki at human PDE2A1 (setting [1]) is 52 nM.
Still for that read-out and setting: the same measure for `CC(C)C(C)(NC(=O)c1cc(=O)[nH]c(-c2ncccn2)n1)c1ccc(S(F)(F)(F)(F)F)cc1` (stereo not shown) [Example 561, N-{1,2-dimethyl-1-[4-(pentafluoro-λ^6-sulfanyl)phenyl]propyl}-6-oxo-1,6-dihydro-2,2′-bipyrimidine-4-carboxamide]: 202 nM; for `O=C(N[C@@H](c1ccc(C2CC2)c(F)c1)C1CC1)c1cc(=O)[nH]c(-c2ncccn2)n1` [Example 581, N-[(R)-cyclopropyl(4-cyclopropyl-3-fluorophenyl)methyl]-6-oxo-1,6-dihydro-2,2′-bipyrimidine-4-carboxamide]: 13 nM; for `CC(C)(C)[C@@H](NC(=O)c1cc(=O)[nH]c(-c2ncccn2)n1)c1ccc(C(F)(F)F)cc1F` [Example 565, N-{(1R)-1-[2-fluoro-4-(trifluoromethyl)phenyl]-2,2-dimethylpropyl}-6-oxo-1,6-dihydro-2,2′-bipyrimidine-4-carboxamide]: 7 nM.
The same measure, in the same setting: in the case of `CC(C)(NC(=O)c1cc(=O)[nH]c(-c2ncccn2)n1)c1ccc(SC(F)(F)F)cc1` [Example 577, N-(1-methyl-1-{4-[(trifluoromethyl)sulfanyl]phenyl}ethyl)-6-oxo-1,6-dihydro-2,2′-bipyrimidine-4-carboxamide] it was 287 nM; in that of `CC(C)(NC(=O)c1cc(=O)[nH]c(-c2ncccn2)n1)c1ccc(OC(F)(F)F)cc1F` [Example 574, N-{1-[2-fluoro-4-(trifluoromethoxy)phenyl]-1-methylethyl}-6-oxo-1,6-dihydro-2,2′-bipyrimidine-4-carboxamide], 831 nM.
For the compound `O=C(NC1(c2ccc3c(c2)OC(F)(F)O3)CC1)c1cc(=O)[nH]c(-c2ccccc2)n1` [Example 535, N-[1-(2,2-difluoro-1,3-benzodioxol-5-yl)cyclopropyl]-6-oxo-2-phenyl-1,6-dihydropyrimidine-4-carboxamide], on human PDE2A1 (setting [1]), the Ki worked out at 24 nM.
